Data set [1] is described as follows: NMR line width of half-amplitude (mobility of CP). The format is physicochemical. The following applies: line width at half amplitude of methylene protons, 1H-NMR. Here is the method: The mobility of CP in the compositions was evaluated by NMR, by measuring the line widths of half-amplitude (Hz) of methylene protons. Compositions were diluted with deuterium oxide by 3-fold. Neat CP was diluted with chloroform-d. The compositions were loaded into NMR tubes and their ^1H-NMR spectra were examined by Avance 400 spectrometer (Bruker, Bremen, Germany).
The mobility of solid fatty ester in lipid cores of the CP-containing compositions was examined by proton NMR. The line width of signals for neat CP was 3.50 Hz.

A short description of data set [2]: In vivo real-time optical imaging after IV injection. More on the design: species or system Sprague-Dawley rats. The following applies: rats. How it is done:
Male Sprague-Dawley rats aged 8˜10 weeks was supplied by Lasco (Taipei, Taiwan). Animal experimental protocol was approved by the Institutional Animal Care and Use Committee of Chang Gung University, Taiwan. The rats had free access to water and food at all time. The rats were anesthetized and injected with the compositions of the present invention or the control solution (dimethyl sulfoxide:Tween 80:normal saline=4:2:4) at a DiR dose of 40 μg/kg via femoral vein. In vivo real-time imaging was acquired using Pearl® Impulse at NIR wavelength. Rats were sacrificed 4 h post-injection. The following organs were collected and washed with normal saline: skin, muscle, heart, lungs, liver, spleen, and kidneys. The fluorescence intensity in these organs was assessed Ex Vivo by Pearl® Impulse. In Vivo optical images were taken after ICG, control DiR solution (with 40% v/w dimethyl sulfoxide) and S1-S4 compositions were administered into the rats via intravenous (IV) injection.

A value given as a limit tells only on which side of the number the result lay.

`CCCCCCCCCCCCCCCCOC(=O)CCCCCCCCCCCCCCC` [CP, Cetyl palmitate]: the “Line width (Hz)” value in data set [1] turned out to be 3.50 Hz.

`CC1(C)C(/C=C/C=C/C=C/C=C2\N(CCCCS(=O)(=O)O)c3ccc4ccccc4c3C2(C)C)=[N+](CCCCS(=O)(=O)[O-])c2ccc3ccccc3c21` [ICG, Indocyanine green]: in data set [2], the “time post-injection at which fluorescence is detected in the liver (liver clearance)” value was at most 5 min. The imaging time result in data set [2] (fluorescence activity in large and small vessels) was “about 5 min”.
